# Experimental data reported in patent US20200077656A1, “Use of an Acyclic Picolinamide Compound as a Fungicide for Control of Phytopathogenic Fungi in Row Crops” (priority 2017, published 2020).
# Key:
# Type in all cases: in vivo
# Cercospora zeae-maydis = assay: Field assessment of Cercospora zeae-maydis (CERCZM) in corn; conditions: EC + Trycol adjuvant
# Procedure: Field Assessment of Cercospora zeae-Maydis (CERCZM) in Corn: […] The experimental plots were inoculated with grey leaf spot 24 hr after application. […] Disease severity (percentage of visual diseased foliage on whole plot) was assessed five times during the trial (22-50 days after application, DAA). The disease infection was recorded following EPPO PP1/26 guideline prescriptions. Area under the disease progress curve (AUDPC) was calculated for each plot using the sets of recorded severity data. Relative AUDPC (% control based on AUDPC) was calculated as percent of the nontreated control.
# [1] = test system: Cercosporidium personatum; assay: Field assessment of Cercosporidium personatum (MYCOBE) in peanut; conditions: Table 9, late leaf spot of peanut, AUDPC based
# Puccinia polysora = assay: Field assessment of Puccinia polysora (PUCCPY) in corn; conditions: EC + Trycol adjuvant
# Pyrenophora teres = assay: Field assessment of Pyrenophora teres (PYRNTE) on barley, Trial 1 (inoculated); conditions: EC + Trycol
# Description: Field Assessment of Pyrenophora teres ([…]) on Barley: A fungicidal treatment containing an EC formulation of compound I, tanked mixed with an adjuvant (Trycol, 50% w/w at 0.1% v/v), was sprayed on barley plants (spring barley; […] variety) twice, the first application at BBCH 37-43 growth stages of spring barley (0.01% infection on L1 at application) and the second application at growth stages 53-57 of spring barley (6.25% infection at application). […] The experimental plots were inoculated with net blotch of barley (1,000,000 spores/mL) at growth stage 39 of spring barley 1 day after the first […]. […] Disease severity was recorded as a percentage of visual diseased foliage on whole plot. Net blotch of barley infection was assessed three times at 7, 14 and 21 days after the last application. The disease infection was recorded following EPPO PP1/26 guideline prescriptions. Area under the disease progress curve (AUDPC) was calculated for each plot using the sets of recorded severity data. Relative AUDPC (% control based on AUDPC) was calculated as percent of the nontreated control.
# [2] = test system: Blumeria graminis f. sp. tritici; assay: Field assessment of Blumeria graminis f. sp. tritici (ERYSGT) on wheat
# Procedure: Field Assessment of Blumeria graminis f sp. […] Disease severity was recorded as a percentage of visual diseased foliage on whole plot. […] infection was assessed three times at 12, 19 and 26 days after the last application. The disease infection was recorded following EPPO PP1/26 guideline prescriptions. Area under the disease progress curve (AUDPC) was calculated for each plot using the sets of recorded severity data. Relative AUDPC (% control based on AUDPC) was calculated as percent of the nontreated control.
# [3] = test system: Blumeria graminis f. sp. hordei; assay: Greenhouse assessment of Blumeria graminis f. sp. hordei (ERYSGH) on barley; conditions: inoculated 1 day post application, barley seedlings
# Procedure: Greenhouse Assessment of Blumeria graminis f sp. hordei ([…]) on Barley: In greenhouse studies, technical grades of material were dissolved in acetone, which were then mixed with nine volumes of water containing 100 ppm of Triton X-100. The fungicide formulations were applied onto seedling plants using an automated booth sprayer to run off. All sprayed plants were allowed to dry prior to further handling. Test plants were inoculated with powdery mildew of barley 1-day post application. When disease symptoms were fully expressed on the untreated plants, infection levels were assessed on a scale of 0 to 100 percent disease severity. Percent disease control was calculated using the ratio of disease severity on treated plants relative to untreated plants.
smiles,measurement,setting,value
"COc1ccnc(C(=O)N[C@@H](C)C(=O)O[C@@H](C)C(c2ccc(F)cc2)c2ccc(F)cc2)c1OC(C)=O [Compound I, (S)-1,1-bis(4-fluorophenyl)propan-2-yl (3-acetoxy-4-methoxypicolinoyl)-L-alaninate]","Disease control of CERCZM, percent control based on AUDPC",Cercospora zeae-maydis; 50 g ai/ha,B (51-75)
same,"Disease control of CERCZM, percent control based on AUDPC",Cercospora zeae-maydis; 100 g ai/ha,B (51-75)
same,"Disease control of CERCZM, percent control based on AUDPC",Cercospora zeae-maydis; 150 g ai/ha,B (51-75)
same,Calc Percent Control of MYCOBE,"[1]; 50 g/ha, Agnique BP420 200 mL/ha",28.5%
same,Calc Percent Control of MYCOBE,"[1]; 50 g/ha, MSO 100 g/ha",24.0%
same,Calc Percent Control of MYCOBE,"[1]; 75 g/ha, Agnique BP420 300 mL/ha",30.0%
same,Calc Percent Control of MYCOBE,"[1]; 75 g/ha, MSO 150 g/ha",26.8%
same,Calc Percent Control of MYCOBE,"[1]; 100 g/ha, Adsee C80W 80% 250 g/ha",26.9%
same,Calc Percent Control of MYCOBE,"[1]; 100 g/ha, Agnique BP420 400 mL/ha",36.0%
same,Calc Percent Control of MYCOBE,"[1]; 100 g/ha, MSO 200 g/ha",29.0%
same,Calc Percent Control of MYCOBE,"[1]; 150 g/ha, Agnique BP420 600 mL/ha",44.7%
same,Calc Percent Control of MYCOBE,"[1]; 150 g/ha, MSO 300 g/ha",38.5%
same,"Disease control of PUCCPY, percent control based on AUDPC",Puccinia polysora; 50 g ai/ha,C (26-50)
same,"Disease control of PUCCPY, percent control based on AUDPC",Puccinia polysora; 100 g ai/ha,B (51-75)
same,"Disease control of PUCCPY, percent control based on AUDPC",Puccinia polysora; 150 g ai/ha,B (51-75)
same,"% Control (AUDPC) of PYRNTE, Trial 1",Pyrenophora teres; 75 g ai/ha,B (51-75)
same,"% Control (AUDPC) of PYRNTE, Trial 1",Pyrenophora teres; 100 g ai/ha,B (51-75)
same,"% Control (AUDPC) of PYRNTE, Trial 1",Pyrenophora teres; 150 g ai/ha,B (51-75)
same,% Control (AUDPC) of ERYSGT,"[2]; 5 g ai/ha, EC + Agnique BP-420",C (26-50)
same,% Control (AUDPC) of ERYSGT,"[2]; 5 g ai/ha, SC + Agnique BP-420",C (26-50)
same,% Control (AUDPC) of ERYSGT,"[2]; 20 g ai/ha, EC + Agnique BP-420",A (76-100)
same,% Control (AUDPC) of ERYSGT,"[2]; 20 g ai/ha, SC + Agnique BP-420",B (51-75)
same,% Control (AUDPC) of ERYSGT,"[2]; 40 g ai/ha, EC + Agnique BP-420",A (76-100)
same,% Control (AUDPC) of ERYSGT,"[2]; 40 g ai/ha, SC + Agnique BP-420",A (76-100)
same,% Control (AUDPC) of ERYSGT,"[2]; 60 g ai/ha, EC + Agnique BP-420",A (76-100)
same,% Control (AUDPC) of ERYSGT,"[2]; 60 g ai/ha, SC + Agnique BP-420",A (76-100)
same,% Control (AUDPC) of ERYSGT,"[2]; 80 g ai/ha, EC + Agnique BP-420",A (76-100)
same,% Control (AUDPC) of ERYSGT,"[2]; 80 g ai/ha, SC + Agnique BP-420",A (76-100)
same,% Control (AUDPC) of ERYSGT,"[2]; 120 g ai/ha, EC + Agnique BP-420",A (76-100)
same,% Control (AUDPC) of ERYSGT,"[2]; 120 g ai/ha, SC + Agnique BP-420",A (76-100)
same,% Control of ERYSGH (disease severity treated relative to untreated),[3]; 0.39 ppm,B (51-75)
same,% Control of ERYSGH (disease severity treated relative to untreated),[3]; 1.56 ppm,A (76-100)
same,% Control of ERYSGH (disease severity treated relative to untreated),[3]; 6.25 ppm,A (76-100)
same,% Control of ERYSGH (disease severity treated relative to untreated),[3]; 25 ppm,A (76-100)
same,% Control of ERYSGH (disease severity treated relative to untreated),[3]; 100 ppm,A (76-100)
